Data from patent publication US20210154190A1, “SHP2 INHIBITOR COMPOSITIONS AND METHODS FOR TREATING CANCER” (Revolution Medicines, Inc., priority 2018, published 2021).
Changes are numbered by the printed parent chain. Values joined by “and” are separate entries in the source; they are usually repeats but may differ in a detail not shown here. Equal entries are not always repeated. Where two headings read alike, the source gives them in different places.

Assays:
Type in all cases: biochemical
human SHP2-FL S502P = molecular target: T1, human SHP2-FL S502P (Homo sapiens, UniProt Q06124, S502P); assay: SHP2 allosteric inhibition assay (DiFMUP), S502P
T1 sequence (Q06124 1-593 S502P): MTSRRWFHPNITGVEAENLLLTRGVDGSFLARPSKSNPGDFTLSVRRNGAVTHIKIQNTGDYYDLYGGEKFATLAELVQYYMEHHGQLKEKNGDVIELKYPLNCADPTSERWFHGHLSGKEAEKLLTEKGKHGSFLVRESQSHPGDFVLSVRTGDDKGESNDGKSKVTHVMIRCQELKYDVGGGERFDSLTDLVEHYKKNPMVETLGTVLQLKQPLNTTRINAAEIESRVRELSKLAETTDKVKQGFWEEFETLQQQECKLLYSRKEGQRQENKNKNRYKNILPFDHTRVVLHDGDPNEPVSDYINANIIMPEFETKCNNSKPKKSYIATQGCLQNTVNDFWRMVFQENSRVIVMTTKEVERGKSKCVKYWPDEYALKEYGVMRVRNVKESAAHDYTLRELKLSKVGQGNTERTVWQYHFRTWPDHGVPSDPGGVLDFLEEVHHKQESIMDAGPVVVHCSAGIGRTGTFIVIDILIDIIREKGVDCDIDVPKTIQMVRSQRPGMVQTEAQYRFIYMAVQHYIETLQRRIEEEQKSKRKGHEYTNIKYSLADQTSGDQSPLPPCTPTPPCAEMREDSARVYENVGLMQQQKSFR
Protocol: (§1) Full-length SHP2 is allosterically activated through binding of bis-tyrosyl-phorphorylated peptides to its Src Homology 2 (SH2) domains. The latter activation step leads to the release of the auto-inhibitory interface of SHP2, which in turn renders the SHP2 protein tyrosine phosphatase (PTP) active and available for substrate recognition and reaction catalysis. The catalytic activity of SHP2 was monitored using the surrogate substrate DiFMUP in a prompt fluorescence assay format.
(§2) […] […] 50 μl stop solution (0.1 mM sodium pervanadate) was added to each well, the plate was shaken briefly to mix, and read in endpoint mode on a SpectraMax M5 plate reader (Molecular Devices) using excitation and emission wavelengths of 340 nm and 450 nm. Data was imported into GraphPad Prism. Plots of fluorescence intensity vs. log Molar [compound] were created and modeled with a 3-parameter sigmoidal concentration response equation in order to estimate IC50.
(§3) Reactions were then allowed to proceed for 30 minutes and stopped by the addition of a phosphatase inhibitor, sodium pervanadate. De-phosphorylation of DiFMUP results in production of a fluorescent product. Product fluorescence was determined and plotted as a function of compound concentration in order to determine the IC50 for each compound on each mutant using a four parameter sigmoidal dose response function in Prism (GraphPad).
(§4) NsCs mimics the role of the cytosolic domain of a protein tyrosine kinase in this model system.

human SHP2-FL wild type = molecular target: T2, human SHP2-FL wild type (Homo sapiens, UniProt Q06124); assay: SHP2 allosteric inhibition assay (DiFMUP), wild type
T2 sequence (Q06124 1-593): T1 sequence (Q06124 1-593 S502P) with P502S
Protocol: as §1, §2, §3, §4

human SHP2-FL F285S = molecular target: T3, human SHP2-FL F285S (Homo sapiens, UniProt Q06124, F285S); assay: SHP2 allosteric inhibition assay (DiFMUP), F285S
T3 sequence (Q06124 1-593 F285S): T1 sequence (Q06124 1-593 S502P) with F285S, P502S
Protocol: as §1, §2, §3, §4

| SMILES | IC50 (human SHP2-FL S502P; IC50 (nM), SHP2 S502P 0.5 μM NsCs peptide (Activated), human SHP2-FL S502P in presence of 0.5 μM NsCs peptide (activated)) | IC50 (human SHP2-FL S502P; human SHP2-FL S502P alone, no peptide (non-activated), read-out: IC50 (nM), SHP2 S502P No Peptide Control (Non-Activated)) | IC50 (human SHP2-FL S502P; human SHP2-FL S502P alone, no peptide (non-activated), read-out: pIC50, SHP2 S502P No Peptide Control (Non-Activated) (converted)) | IC50 (human SHP2-FL S502P; pIC50, SHP2 S502P 0.5 μM NsCs peptide (Activated), human SHP2-FL S502P in presence of 0.5 μM NsCs peptide (activated)) | IC50 (human SHP2-FL wild type; Wild-type SHP2, 0.5 μM NsCs peptide (Activated), read-out: IC50) | IC50 (human SHP2-FL wild type; Wild-type SHP2, 0.5 μM NsCs peptide (Activated), read-out: pIC50 (converted)) | IC50 (human SHP2-FL wild type; Wild-type SHP2, No Peptide Control (Non-Activated), read-out: IC50) | IC50 (human SHP2-FL wild type; Wild-type SHP2, No Peptide Control (Non-Activated), read-out: pIC50 (converted)) | IC50 (human SHP2-FL F285S; IC50 (nM), SHP2 F285S 0.5 μM NsCs peptide (Activated), human SHP2-FL F285S, 0.5 μM NsCs peptide (activated)) | IC50 (human SHP2-FL F285S; human SHP2-FL F285S alone, no peptide (non-activated), read-out: IC50 (nM), SHP2 F285S No Peptide Control (Non-Activated)) | IC50 (human SHP2-FL F285S; human SHP2-FL F285S alone, no peptide (non-activated), read-out: pIC50, SHP2 F285S No Peptide Control (Non-Activated) (converted)) | IC50 (human SHP2-FL F285S; pIC50, SHP2 F285S 0.5 μM NsCs peptide (Activated), human SHP2-FL F285S, 0.5 μM NsCs peptide (activated)) | Biochemical sensitivity (human SHP2-FL S502P; Variant S502P) | Biochemical sensitivity (human SHP2-FL wild type; Variant WT) | Biochemical sensitivity (human SHP2-FL F285S; Variant F285S) |
| --- | --- | --- | --- | --- | --- | --- | --- | --- | --- | --- | --- | --- | --- | --- | --- |
| Nc1nc(N2CCC3(CCC[C@H]3N)CC2)cnc1Sc1ccnc(Cl)c1Cl [Compound 1] | > 10000 nM | 237 nM and 227 nM and 221 nM and 308 nM | 234 nM and 229 nM and 219 nM and 309 nM | > 10000 nM | 2.62 nM and 2.69 nM and 2.12 nM and 2.37 nM | 2.63 nM and 2.69 nM and 2.14 nM and 2.34 nM | 2.01 nM and 2.43 nM and 1.36 nM and 2.24 nM | 2 nM and 2.45 nM and 1.35 nM and 2.24 nM | 3.76 nM and 9.08 nM and 8.38 nM and 15.1 nM | 1.57 nM and 1.55 nM and 1.04 nM and 1.19 nM | 1.55 nM and 1.05 nM and 1.2 nM | 3.72 nM and 9.12 nM and 8.32 nM and 15.1 nM |  |  |  |
| Cc1nc(N2CCC3(CC2)CO[C@@H](C)[C@H]3N)c(CO)nc1-c1cccc(Cl)c1Cl [Compound B] |  |  |  |  |  |  |  |  |  |  |  |  | no (Sensitive if IC50 < 2000 nM) | yes (Sensitive if IC50 < 2000 nM) | yes (Sensitive if IC50 < 2000 nM) |
